Assay results as given in patent US20080311233A1, “Naturally Occurring Phenolic Substances Useful as Pesticides” (priority 2004, published 2008).

What was measured:
[1] = Solubility / miscibility in water and formulating agents; format: physicochemical
[2] = cited from earlier work

solubility in polyethylene glycol ([1]; polyethylene glycol): considerably soluble | solubility in tetra ethyl ortho silicate ([1]; tetra ethyl ortho silicate): considerably soluble
SMILES: COc1cc(C=O)ccc1O [Vanillin]
solubility in water ([2]; according to the Merck index): 1 gram in 100 ml water | solubility in alcohol ([2]; compared with water, Merck index): more soluble
